pEC50, pIC50: −log10 of the molar value.

One data set in a line: in vivo. Further details: species or system SD rats. As to conditions: rat; for AUC(0-t): AUC0-last; for half-life: T1/2. The method, then:
In this study, male and female SD rats were selected as test animals.
Animals were grouped according to 3 per group/gender. […] The plasma drug concentration was determined using LC-MS/MS method. Table 14: Pharmacokinetic parameters in rats

Data set [1] in a line: hygroscopicity by dynamic vapor sorption (DVS). The data set is classed as physicochemical. The method, then: • Instrument model: SMS DVS Advantage dynamic vapor sorption analyzer • Test conditions: A sample (10 to 30 mg) is taken and placed in a DVS sample tray for testing. • The detailed parameters for DVS are as follows: • Temperature: 25°C • Equilibrium: dm/dt = 0.002%/min (minimum: 10 minutes, maximum: 180 minutes) • RH (%) range: 70%RH-95%RH-0%RH-95%RH • RH (%) gradient: 10% (90%RH-0%RH-90%RH), 5% (95%RH-90%RH and 90%RH-95%RH).

A short description of data set [2]: stability of the crystal form under different conditions (XRPD confirmation). The data set is classed as physicochemical. The text has this:
Table 6: Stability test under different conditions

In the next data set the target is T1, SARS-CoV-2 Mpro (Severe acute respiratory syndrome coronavirus 2, UniProt P0DTD1).
T1 construct: SARS-CoV-2 Mpro; purchased WuXi AppTec
Kind of data set: in vitro anti-SARS-CoV-2 Mpro protease activity (fluorescent substrate assay). The data set is classed as biochemical. As to conditions: 25 nM Mpro protein, 25 µM substrate. The method, then:
The compound was dissolved in DMSO, diluted in a 3-fold gradient using Echo655 according to the required test concentration, with 10 concentration points. Each concentration was duplicated and added to a 384-well plate. The Mpro protein and substrate were diluted with a test buffer (100 mM NaCl, 20 mM Tris-HCl, 1 mM EDTA), and the Mpro protein was added to the 384-well test plate, incubated with the compound at room temperature for 30 min, then the substrate was added. The test concentration of the Mpro protein was 25 nM and the test concentration of the substrate was 25 µM. The mixture was incubated in a constant temperature incubator at 30°C for 60 minutes. Then, the fluorescence signal value at Ex/Em = 340 nm/490 nm was detected using a microplate reader. At the same time, the background well containing substrate and compound but not containing Mpro protein was detected as a control. […]

A further data set has as its system coronavirus HCoV OC43. Briefly: in vitro anti-coronavirus activity, cytopathic model (CPE, CellTiter Glo). The data set is classed as cell-based. As to conditions: Betacoronavirus 1, 120 h; MRC5 cells, HCoV OC43 100TCID50/well, 5 days. The method, then: MRC5 cells and coronavirus HCoV OC43 were purchased from ATCC.
MRC5 cells were cultured in MEM (Sigma) culture medium supplemented with 10% fetal bovine serum (Excell), 1% dual antibody (Hyclone), 1% L-glutamine (Gibco), and 1% non-essential amino acids (Gibco). MEM (Sigma) culture medium supplemented with 5% fetal bovine serum (Excell), 1% dual antibody (Hyclone), 1% L-glutamine (Gibco), and 1% non-essential amino acids (Gibco) was used as the experimental culture medium.
Cells were seeded at a certain density (Table 12) into a 96-well plate and incubated overnight in a 5% CO2, 37°C incubator. The next day, the diluted compound (8 concentration points, double replicate wells) was added thereto, 50 µL per well. Then the diluted virus was added to each well at 100 TCID50, 50 µL per well. Cell controls (cells, no compound treatment or virus infection), virus controls (cells infected with virus, no compound treatment), and culture medium controls (only culture medium) were set up. […] Cell viability was detected using the CellTiter Glo (Promega) cell viability assay kit. […]
(§1) The inhibition rate and cell viability of the compound were analyzed using GraphPad Prism for non-linear fitting, and the half-maximal effective concentration (EC50) and half-maximal cytotoxic concentration (CC50) values of the compound were calculated. […]

Data set [3] in a line: cytotoxicity experiment (same conditions, without virus infection). As to conditions: human; MRC5 cells, 5 days, no virus. The data set is classed as cell-based. The method, then:
Cells were seeded at a certain density (Table 12) into a 96-well plate and incubated overnight in a 5% CO2, 37°C incubator. The next day, the diluted compound (8 concentration points, double replicate wells) was added thereto, 50 µL per well. Then the diluted virus was added to each well at 100 TCID50, 50 µL per well. Cell controls (cells, no compound treatment or virus infection), virus controls (cells infected with virus, no compound treatment), and culture medium controls (only culture medium) were set up. The final volume of the experimental culture medium was 200 µL, with a final DMSO concentration of 0.5% in the culture medium. The cells were incubated for 5 days in a 5% CO2, 33°C incubator. Cell viability was detected using the CellTiter Glo (Promega) cell viability assay kit. The conditions for the cytotoxicity experiment were the same as for the antiviral experiment, but without virus infection.
The antiviral activity and cytotoxicity of the compound were represented by the inhibition rate (%) and the cell viability (%) of the cytopathic effect caused by the virus at different concentrations of the compound, respectively. […]
as §1

Another data set concerns coronavirus OC43 strain. Briefly: in vivo antiviral efficacy, suckling mouse infection model. As to conditions: once a day for 7 consecutive days, first dose 2 hours before inoculation.

Description for coronavirus OC43 strain: Experimental example 4: Evaluation of the in vivo antiviral efficacy of the test compound using a suckling mouse infection model with the coronavirus OC43 strain

As for `CC(C)(C)[C@H](NC(=O)C(F)(F)F)C(=O)N1[C@H]2C[C@@H]([C@H]1C(=O)N[C@H](C#N)C[C@@H]1CCNC1=O)C1(CC1)C2` [Crystal form A], in the data set “in vivo” (iv, 2 mg/kg), the AUC0-last was found to be 778 ng·h/mL, the AUC(0-inf) was found to be 785 ng·h/mL, the Cl is given as 42.5 mL/min/kg and the T1/2 was 18.2 min. Moreover, in the data set “in vivo” (iv, 2 mg/kg), the Vdss came to 1.04 L/kg, the AUC(0-t) was 792 ng·h/mL and the half-life was 19.8 min. This compound also registered an AUC(0-inf) in the data set “in vivo” (iv, 2 mg/kg, AUC0-inf) of 804 ng·h/mL. Further, the clearance in the data set “in vivo” (iv, 2 mg/kg, Cl) came out at 42.4 mL/min/kg. Also, the Vd in “in vivo” (iv, 2 mg/kg, Vdss) is 1.11 L/kg. For the same compound, in “in vivo” (po, 30 mg/kg), the AUC0-last was 9910 ng·h/mL, the Tmax was determined as 30 min, the AUC(0-t) is 5960 ng·h/mL and the half-life was 49.6 min. Also, the AUC(0-inf) in the data set “in vivo” (po, 30 mg/kg, AUC0-inf) came to 5980 ng·h/mL. Further, the Tmax in “in vivo” (po, 30 mg/kg, Tmax) came to 55 min. Further, in data set [1] (25°C and 80% RH), the hygroscopic weight gain stood at 0.114% and the hygroscopicity result is “no or almost no hygroscopicity”. For the same compound, the ΔW in data set [1] (DVS pattern, Figure 16) stood at 0.114%. For the same compound, the “Confirmation of crystal form by XRPD after completion of the experiment” value (“Confirmation of crystal form by XRPD” below) in data set [2] (High humidity condition (25°C/92.5%RH), 30 days) is “Crystal form A”. The “Confirmation of crystal form by XRPD” value in data set [2] (High temperature (60°C), 30 days) is “Crystal form A”. Besides, the “Confirmation of crystal form by XRPD” value in data set [2] (Illumination (5000 ± 500 lux (visible light) and 90 µw/cm^2 (ultraviolet)), 10 days) is recorded as “Crystal form A”.
For `CC(C)(C)[C@H](NC(=O)C(F)(F)F)C(=O)N1[C@H]2C[C@@H]([C@H]1C(=O)N[C@H](C#N)C[C@@H]1CCNC1=O)C1(CC1)C2` [Compound 1], the pIC50 against SARS-CoV-2 Mpro is 8.74. In the data set with coronavirus HCoV OC43, this compound showed a pEC50 of 8.29 and an EC90 of 7.9 nM. Further, the CC50 at 120 h in data set [3] was greater than 10000 nM. Further, in the data set on coronavirus OC43 strain (12.5 mg/kg), the Median survival time is listed as greater than 14 days and the Survival rate stood at 87.5%. Also, in the data set on coronavirus OC43 strain (25 mg/kg), the Median survival time is greater than 14 days and the Survival rate is given as 100%. In the data set on coronavirus OC43 strain (50 mg/kg), the Median survival time was greater than 14 days and the Survival rate amounted to 100%.
